Data reported in ChEMBL document CHEMBL6134828, “Discovery, synthesis, and biological mechanism evaluation of novel quinoline derivatives as potent NLRP3 inhibitors” (Eur J Med Chem, 2025).
pIC50: −log10 of the molar value.

Molecular target: NACHT, LRR and PYD domains-containing protein 3 (Mus musculus, UniProt Q8R4B8)
Assay: Inhibition of NLRP3 in mouse J774.A1 cells assessed as reduction IL-1beta release by ELISA
Assay type: cell-based

Sequence of NACHT, LRR and PYD domains-containing protein 3 (Q8R4B8 whole entry, the tested form may be a part): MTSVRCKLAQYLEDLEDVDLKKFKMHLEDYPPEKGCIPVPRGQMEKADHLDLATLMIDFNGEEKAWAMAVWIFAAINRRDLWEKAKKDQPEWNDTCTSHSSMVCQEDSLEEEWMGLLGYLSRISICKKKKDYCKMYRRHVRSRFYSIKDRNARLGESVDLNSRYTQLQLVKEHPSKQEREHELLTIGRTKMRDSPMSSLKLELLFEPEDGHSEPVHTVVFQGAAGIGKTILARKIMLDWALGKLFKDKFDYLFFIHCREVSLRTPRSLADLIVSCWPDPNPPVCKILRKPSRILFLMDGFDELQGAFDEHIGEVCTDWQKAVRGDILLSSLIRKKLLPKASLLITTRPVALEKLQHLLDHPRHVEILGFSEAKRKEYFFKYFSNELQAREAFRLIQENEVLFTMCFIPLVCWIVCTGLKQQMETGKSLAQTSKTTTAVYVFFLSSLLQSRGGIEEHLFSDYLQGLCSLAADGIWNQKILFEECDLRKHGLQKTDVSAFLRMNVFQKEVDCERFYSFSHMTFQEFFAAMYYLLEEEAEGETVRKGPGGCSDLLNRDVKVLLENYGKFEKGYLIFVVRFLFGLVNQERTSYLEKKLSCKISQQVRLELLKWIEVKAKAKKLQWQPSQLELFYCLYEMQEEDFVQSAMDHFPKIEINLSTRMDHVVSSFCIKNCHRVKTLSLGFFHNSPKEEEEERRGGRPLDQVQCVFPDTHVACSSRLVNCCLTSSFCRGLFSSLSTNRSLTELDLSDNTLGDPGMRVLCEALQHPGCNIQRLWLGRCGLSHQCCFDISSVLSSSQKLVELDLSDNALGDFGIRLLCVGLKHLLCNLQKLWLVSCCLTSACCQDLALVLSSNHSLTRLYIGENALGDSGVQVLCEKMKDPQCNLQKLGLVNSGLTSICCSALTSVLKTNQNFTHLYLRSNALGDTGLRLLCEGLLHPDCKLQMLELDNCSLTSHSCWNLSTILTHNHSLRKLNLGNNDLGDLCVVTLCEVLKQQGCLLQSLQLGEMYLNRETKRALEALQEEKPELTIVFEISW

| Compound | pIC50 |
| --- | --- |
| CC[C@H](NC(=O)c1c(C)c(-c2cccc(F)c2)nc2ccc(OC)cc12)c1ccccc1 | 5.98 |
| CC[C@H](NC(=O)c1c(C)c(-c2ccccc2)nc2ccccc12)c1ccccc1 [SB-222200] | 5.90 |
| CC[C@H](NC(=O)c1c(C)c(-c2cccc(F)c2)nc2cc(OC)ccc12)c1ccccc1 | 5.92 |
| CC[C@H](NC(=O)c1c(C)c(-c2cccc(F)c2)nc2cc(Br)ccc12)c1ccccc1 | 6.04 |
| CC[C@H](NC(=O)c1c(C)c(-c2cccc(F)c2)nc2c(OC)cccc12)c1ccccc1 | 5.97 |
| O=C(N[C@H]1CCc2ccccc21)c1cc(-c2ccccc2)nc2ccccc12 | 5.35 |
| CC[C@H](NC(=O)c1c(C)c(-c2cccc(F)c2)nc2c(NC(C)=O)cccc12)c1ccccc1 | 6.14 |
| CC[C@H](NC(=O)c1c(C)c(-c2cccc(F)c2)nc2ccc(Br)cc12)c1ccccc1 | 5.92 |
| CC[C@H](NC(=O)c1cc(-c2cccc(F)c2)nc2ccccc12)c1ccccc1 | 5.55 |
| CCC(C)NC(=O)c1cc(-c2ccccc2)nc2ccccc12 (centres undefined) | 4.40 |
| CC[C@H](NC(=O)c1c(C)c(-c2cccc(Cl)c2)nc2ccccc12)c1ccccc1 | 6.05 |
| CC[C@H](NC(=O)c1cc(Cl)nc2ccccc12)c1ccccc1 | 4.07 |
| O=C(Nc1ccccc1)c1cc(-c2ccccc2)nc2ccccc12 | 5.68 |
| CSc1ccccc1NC(=O)c1cc(-c2ccccc2)nc2ccccc12 | 5.51 |
| CC[C@H](NC(=O)c1c(C)c(-c2cccc(F)c2)nc2c(NS(=O)(=O)C3CC3)cccc12)c1ccccc1 | 6.38 |
| CC[C@H](NC(=O)c1cc(-c2ccccc2)nc2ccccc12)c1ccccc1 [AZD-7624] | 5.89 |
| CC[C@H](NC(=O)c1c(C)c(-c2ccc(C(F)(F)F)cc2)nc2ccccc12)c1ccccc1 | 5.56 |
| O=C(Nc1ccccc1OCc1ccccc1)c1cc(-c2ccccc2)nc2ccccc12 | 4.11 |
| CC[C@H](NC(=O)c1cc(C)nc2ccccc12)c1ccccc1 | 4.07 |
